Source: paper PMC12707263 (ACS Pharmacology & Translational Science, 2025)
“Also recorded” adds a separate entry of the source.

Columns and labels:
[1] = test system: 24 kinase targets associated with B-cell malignancy signaling cascades; experiment: HotSpot profile across the panel; type: biochemical
[2] = reported values; ref not given; cited from earlier work
[3] = test system: OCI-Ly10 cells; experiment: Pairwise 10 × 10 matrix combination with venetoclax, Cell Titer Glo viability; conditions: for synergistic cell killing when combined with venetoclax: ΔBlissSum
[4] = test system: REC-1 cells; experiment: as above; conditions: venetoclax 10000 nM to 39 nM
[5] = test system: HBL1 cells; experiment: as above; conditions: venetoclax 1000 nM to 3.9 nM

| Structure (SMILES) | off-target profile across the 24 kinase panel [1] | fraction unbound (FU) [2] | synergistic cell killing when combined with venetoclax [3] | other results |
| --- | --- | --- | --- | --- |
| C=CC(=O)N1CCC(CNc2ncnc(N)c2-c2ccc(Oc3ccccc3)cc2)CC1 [Evobrutinib] | remarkably free of any additional off target activity |  |  |  |
| CC#CC(=O)N1CC[C@@H](n2c(=O)n(-c3ccc(Oc4ccccc4)cc3)c3c(N)ncnc32)C1 [Tirabrutinib] | most selective; also recorded: remarkably free of any additional off target activity | 8.3 % FU |  |  |
| CC#CC(=O)N[C@H]1CCCN(c2c(F)cc(C(N)=O)c3[nH]c(C)c(C)c23)C1 [Branebrutinib] | remarkably free of any additional off target activity | 1.2 % FU |  |  |
| CC#CC(=O)N1CCC[C@H]1c1nc(-c2ccc(C(=O)Nc3ccccn3)cc2)c2c(N)nccn12 [Acalabrutinib] | most selective; also recorded: remarkably free of any additional off target activity | 2.5 % FU | more focal in nature |  |
| CC1(C)CCC(CN2CCN(c3ccc(C(=O)NS(=O)(=O)c4ccc(NCC5CCOCC5)c([N+](=O)[O-])c4)c(Oc4cnc5[nH]ccc5c4)c3)CC2)=C(c2ccc(Cl)cc2)C1 [Venetoclax] |  |  |  | single agent activity (cytotoxicity) [4]: no single agent activity; single agent activity (cytotoxicity) [5]: no single agent activity; single agent activity (cytotoxicity) ([3]; venetoclax 1000 nM to 3.9 nM): no single agent activity |
| CC(C)(/C=C(\C#N)C(=O)N1CCC[C@@H](n2nc(-c3ccc(Oc4ccccc4)cc3F)c3c(N)ncnc32)C1)N1CCN(C2COC2)CC1 [Rilzabrutinib] | remarkably free of any additional off target activity |  | similar, broad synergistic cell killing across multiple concentration ranges |  |
| C=CC(=O)Nc1cccc(Oc2nc(Nc3ccc(N4CCN(C)CC4)cc3)nc3ccoc23)c1 [Poseltinib] | most promiscuous beyond BMX and BLK |  | more focal in nature |  |
| C[C@H]1CN(C2COC2)CCN1c1ccc(Nc2cc(-c3ccnc(N4CCn5c(cc6c5CC(C)(C)C6)C4=O)c3CO)cn(C)c2=O)nc1 [Fenebrutinib] | most selective; also recorded: remarkably free of any additional off target activity |  |  |  |
| C=CC(=O)N(C)CCOc1c(N)ncnc1-c1cc(F)cc(NC(=O)c2ccc(C3CC3)cc2F)c1C [Remibrutinib] | most selective; also recorded: remarkably free of any additional off target activity |  | similar, broad synergistic cell killing across multiple concentration ranges |  |
| C=CC(=O)N1CCC[C@@H](n2nc(-c3ccc(Oc4ccccc4)cc3)c3c(N)ncnc32)C1 [Ibrutinib] | most promiscuous beyond BMX and BLK |  |  |  |
| C=CC(=O)N1CCC([C@@H]2CCNc3c(C(N)=O)c(-c4ccc(Oc5ccccc5)cc4)nn32)CC1 [Zanubrutinib] | most promiscuous beyond BMX and BLK | 6 % FU | similar, broad synergistic cell killing across multiple concentration ranges |  |
